Source: a melting point compilation (Tetko et al.; mined from patent text by program, amines drawn as free bases though some values may be those of a salt)

| SMILES | melting point [°C] |
| --- | --- |
| CC(=O)OC1(C(C)=O)CCC2C3CCC4=CC(=O)CCC4(C)C3(Br)C(F)CC21C (centres undefined) | 180 to 182 |
| O=[N+]([O-])c1cc(-c2ncnc(C(F)F)c2Cl)c(Cl)cc1Cl | 107 to 109 |
| O=C(Nc1cccc2c1C(=O)c1c-2n[nH]c1-c1ccc(C(=O)NC2CN3CCC2CC3)s1)NN1CCOCC1 (centres undefined) | 245 to 246 |
| CCCc1c(C(=O)C(C)C)c2ccc(NC=O)cc2n1Cc1ccccc1Cl | 113 to 115 |
| COC(=O)C(=CNc1ccnc(-c2ccncc2)n1)C(=O)OC | 209 to 211 |
| CC(C)n1c(=O)sc2cc(N3C[C@H](C(N)=O)OC3=O)ccc21 | 183 to 184 |
| Cc1cc(Cl)ccc1OC(Cn1cncn1)C(=O)C(C)(C)C (centres undefined) | 63 to 65 |
| CC1(C)COP(=O)(OC(C#N)c2cccc(Oc3ccccc3)c2)OC1 (centres undefined) | 140 |
| C=CC[C@H]1Cc2c(OCOC)cccc2C(=O)O1 | 74 to 75 |
| CCCCCCCCCCCCOCC1CN(c2cc3c(cc2F)c(=O)c(C(=O)O)cn3CC)CCN1C (centres undefined) | 166 to 168 |
| COc1cc(N)c(Cl)cc1C(=O)Cl | 242 |
| COC(=O)[C@@H](NC(=O)OCc1ccccc1)[C@H](O)c1ccccc1 | 107 to 108 |
| CN1C(=O)CC[C@]2(C)c3ccc(-c4ccc([N+](=O)[O-])s4)cc3CC[C@@H]12 | 147 to 149 |
| COC(=O)c1ccnc(Nc2ccc(SC)cc2)c1 | 142 |
| O=c1[nH]c2ncc(Cl)cc2o1 | 184 to 186 |
| CCCSc1sc(C(N)=O)c2c1-c1nn(C(C)=O)cc1CC2 | 219 to 220 |
| S=C1Nc2c(Cl)cccc2CS1 | 125 to 126 |
| Clc1ccc2c(c1)C(c1ccccc1)=NCc1nnc(Br)n1-2 | 206 |
| COc1ccc(C(=O)c2ccc(Cl)nc2)cc1OC | 158 to 159 |

| SMILES | melting point [°C] |
| --- | --- |
| Cc1cc(C#N)cc(-c2ccc3c(c2)C(C)(C)OC(=S)N3)c1 | 230 to 231 |
| O=[N+]([O-])c1cnn(C2CC2)c1 | 44 to 45 |
| O=C(NCCO)/C(=C/c1ccc(OC(F)(F)F)cc1)NC(=O)c1ccc(OCCCC(F)(F)F)cc1 | 160 to 163 |
| CCOc1cc(CO)ccc1OCCBr | 51 to 53 |
| O=C(CCc1ccc(NC(=O)C(F)(F)F)c([N+](=O)[O-])c1)N1CCCCC1 | 102 to 103 |
| O=C1SCCN1Cc1ccccc1[N+](=O)[O-] | 92 to 93 |
| CC(C)(C)C(=O)Nc1c(F)cc(F)cc1C#Cc1ccc(SC2CCOCC2)cc1 | 148 to 149 |
| COc1ccc2ncc([N+](=O)[O-])c(O)c2c1 | 278 to 281 |
| CCCOc1ccc2c(c1)C(c1ccc(OC)cc1OCC(=O)O)C(C(=O)O)C2c1cc2c(cc1OC)OCO2 (centres undefined) | 188 to 190 |
| CS(=O)(=O)c1ccc(C(CC2CCCCC2)C(=O)O)cc1 (centres undefined) | 139 to 143 |
| O=C1CCNC(=O)C1C(=O)c1ccccc1 (centres undefined) | 164 to 165 |
| O=C1Nc2cccnc2N(C(=O)NCCN2CCCCC2CCCCN2CCCCC2)c2ccccc21 (centres undefined) | 154 to 155 |
| NC(=O)c1c(F)ccc(F)c1N | 121 to 123 |
| CNC(=S)C1(c2ccncc2)CCCCC1=O (centres undefined) | 182 to 183 |
| CCC(NC(=O)OC)c1ccc(Cl)c2nc3n(c12)CCCN3c1ccc(Cl)cc1Cl (centres undefined) | 201 to 203 |
| COc1cc(Nc2c(C#N)cnc3cc(I)c(OC)cc23)c(Cl)cc1Cl | 253 to 254 |
| CCC1C(C=O)=NN=C(c2ccc(OC)c(OC)c2)c2cc(OC)c(OC)cc21 (centres undefined) | 103 to 105 |
| O=C1NC(=O)C(c2ccc3c(c2)CCCC3)S1 (centres undefined) | 157 to 158 |
| CC(=O)OC1CSC(Oc2ccc(-c3ccnc(F)c3)nc2Cl)C(OC(C)=O)C1OC(C)=O (centres undefined) | 226 |

| SMILES | melting point [°C] |
| --- | --- |
| CC12CCC(=O)CC1CCC1C2CCC2(C)C(C(N)=O)CCC12 (centres undefined) | 259 to 262 |
| CCCCCCCCCCCCC(C)COc1ccc(C(C)=O)o1 (centres undefined) | 45 to 47 |
| CCOC(=O)c1nc(-c2nccs2)cs1 | 143 to 145 |
| CC(=O)N[C@@H](C)COC1CCN(c2nc3cc(OCC4CC4)ccc3s2)CC1 | 115 to 116 |
| CCCCCCCCCCCCCCC1C(=O)OC2OC3(C)CCC4C(C)CCC1C24OO3 (single isomer, unassigned; (+)) | 65 to 66 |
| COc1ccc2[nH]c(Br)c(CCNC(=O)C3CC3)c2c1 | 82 to 83 |
| C=C1COc2c(F)c(F)cc3c(=O)c(C(=O)OCC)cn1c23 | 258 to 263 |
| ClC1=Nc2cccc(Br)c2C2=NCCN12 | 220 to 223 |
| Cc1cc(=O)c(OCc2ccccc2)c(C(=O)NC2CCCCC2)o1 | 118 to 120 |
| Nc1ncc(S(=O)(=O)Nc2ccc(Br)c3c(Cl)c[nH]c23)cn1 | 285 to 289 |
| CCC(CC(=O)OC)Sc1c(C(N)=O)sc2ccc(OC)cc12 (centres undefined) | 134 to 136 |
| CCOC(=O)CCCOc1ccc2c(c1)C[C@@H](NC(=O)OC(C)(C)C)CC2 | 96 to 98 |
| C[Si](C)(C)CCCNc1ccc(C(=O)O)cc1 | 164 to 165 |
| CCOC(=O)C1=C(N)NC2=C(C(=O)CCC2)C1c1ccccc1N=[N+]=[N-] (centres undefined) | 209 |
| O=CN1CC2CC2(c2ccc(O)cc2)C1 (centres undefined) | 166 to 167 |
| N#CC(C#N)=C(NCCN1CCCCC1)N1CCC(CN2CCCCC2)CC1 | 78 to 80 |
| CCC1(O)CC(=O)OCc2c1cc[nH]c2=O (centres undefined) | 118 to 119 |
| CCc1nnc2c(N(C(C)=O)C(C)=O)nc3ccccc3n12 | 157 to 159 |
| CCOc1cc(C2c3cccc(C4CC4C(N)=O)c3C(=O)N2CCS(C)(=O)=O)ccc1O (centres undefined) | 296 |

Results, then the compound that gave them:

| melting point [°C] | SMILES |
| --- | --- |
| 190 to 193 | CCOCc1nc2c(N)nc3ccccc3c2n1CC(C)(C)O |
| 144 to 145 | Oc1ccc(C2CC(c3ccccc3)=NN2c2ccccc2)cc1 (centres undefined) |
| 94 to 96 | Cn1cc(-c2cccc(F)c2)c(=O)c(-c2cccc(C(F)(F)F)c2)c1 |
| 256 to 257 | COC(=O)c1ccc2c3cccc4cccc(c5ccc(C(=O)OC)c1c25)c43 |
| 160 | Cc1nc2ccccn2c(=O)c1CCN1CCC(c2coc3cc(F)ccc23)CC1 |
| 158 to 159 | O=C(O)CNC(=O)Cc1ccc(Cl)cc1SC(=O)c1ccccc1 |
| 129 to 132 | COc1ccc(S(=O)(=O)N(CCN2CCC(C(=O)c3ccc(F)cc3)CC2)c2cccc(OC)c2)cc1 |
| 176 to 177 | FC(F)(F)c1cccc(CCc2nnc(-c3ccnc4[nH]ccc34)o2)c1 |
| 135 to 139 | COc1cc(OC)nc(Oc2ccc3[nH]c(C)cc3c2C(=O)OCc2ccccc2)n1 |
| 166 to 167 | CC1(C)OC(=O)Nc2ccc(-c3cccc(F)c3F)cc21 |
| 158 to 160 | CCCCC(=O)c1c(-c2ccc3cc(OCC(=O)O)ccc3c2)oc2ccc(Cl)cc12 |
| 167 to 171 | CCOC(=O)/C=C/c1cc(-c2ccc(C)cc2)n(-c2ccc(S(N)(=O)=O)cc2)n1 |
| 144 | Cc1cc(-n2nc(C#N)cc2-c2ccc(S(C)(=O)=O)cc2)ccc1F |
| 158 to 159 | Cc1ncnn1-c1cc(F)ccc1CNC(=O)c1nc2n(c(=O)c1OCc1ccccc1)CCN2C(C)C |
| 141 to 142 | Fc1ccc(-c2cc(-c3ccccc3)c3cc(Cl)ccc3n2)cc1 |
| 75 | CC(C)(C)OC(=O)[C@H]1CC[C@@H](c2ccccc2)N1C(=O)CNC(=O)Nc1cccc(C(=O)OCc2ccccc2)c1 (racemic) |
| 260 | O=C(O)CC(=O)Nc1c(-c2ccccc2)c(=O)[nH]c2cc(Cl)ccc12 |
| 200 to 202 | COc1cn(-c2ccc(-c3c(C)noc3C)cc2F)nc(-c2ccnn2-c2ccccc2)c1=O |
| 214 | Cc1nc2ccccc2c(N)c1C(C)O (centres undefined) |
| 190 to 192 | CCOC(=O)N(c1ccc(Cl)cc1)c1ccccc1-n1nc(C(=O)O)nc1CCl |
| 92 to 93 | COC(=O)c1cnoc1-c1ccc(F)cc1 |

| melting point [°C] | SMILES |
| --- | --- |
| 164 to 165 | O=[N+]([O-])c1ccc2c(ccn2-c2cccnc2)c1 |
| 139 to 141 | OC(c1ccc(Cl)cc1)(c1ccc(Cl)cc1)c1nccn1COCc1ccccc1 |
| 157 to 159 | c1ccc(CN2CCN(Cc3cc4ccccc4[nH]3)CC2)cc1 |
| 220 to 222 | CCCCn1c(COCC)nc2c(N)nc3ccc(-c4cccnc4)cc3c21 |
| 232 to 233 | O=C(N[C@H](Cc1ccc(C(F)(F)F)cc1)[C@@H](O)c1cccc2ccccc12)c1ccc(C(F)(F)F)cc1 (racemic) |
| 73 to 75 | Cc1cc(C2=C(C=CC3CC(O)CC(=O)O3)C(C)(C)CC(OC(=O)Nc3ccccc3)C2)ccc1F (centres undefined) |
| 130 to 132 | O=C(O)c1ccccc1C(=O)NCCC(Oc1c(Br)cc(-c2ccc(-c3c(Cc4ccccc4)sc4ccccc34)cc2)cc1Br)C(=O)O (centres undefined) |
| 158 | Clc1ccc(N2CC(c3ccccc3)=C(c3ccccc3)C2)cc1 |
| 208 to 210 | Cc1c(-c2ccc(O)cc2)sc(C=O)c1-c1cccc(O)c1 |
| 132 to 133 | CC(=O)Oc1ccc(Nc2nc(N)ncc2Oc2ccc(Cl)cc2)cc1 |
| 217 to 219 | Cc1nc(N2C(=O)CN(c3ccc(F)cc3)C2=O)sc1C(=O)NCc1ccccc1 |
| 71 to 75 | FC(F)(F)c1ccc(CC[C@H]2CN(Cc3ccccc3)CCN2Cc2ccccc2)cc1 |
| 241 to 245 | O=C(CSc1nc2ccccc2[nH]1)c1ccc(Br)cc1 |
| 91 to 92 | CCCc1cc(Cn2c(=O)ccc3c(CC)nc(CC)cc32)ccc1Oc1ccccc1CC(=O)OC |
| 131 to 132 | N#C[C@@H](NCc1ccccc1)[C@@H]1CSC(=O)N1Cc1ccccc1 |
| 167 to 168 | CC1(Cc2ccccc2)Cc2cc(OCC(=O)O)c(Cl)c(Cl)c2C1=O (centres undefined) |
| 194 to 195 | Cc1nc(N(C)c2cccnc2)sc1-c1ccnc(Nc2ccc(N3CCOCC3)cc2)n1 |
| 133 to 135 | Clc1ccc2cccc(-c3cccc4ccccc34)c2n1 |
| 175 to 176 | COCCNc1ccc2ncnc(Nc3ccc(F)cc3F)c2c1 |
| 189 | COC(=O)c1cc(-c2c(OC)cccc2OC)n(-c2cc(C(=O)O)ccc2C)n1 |
| 117 to 135 | CCCCc1nc(Cl)c(C=O)n1Cc1cccc2c1ncn2-c1ccccc1C#N |
